Earlier results on 2 compounds are cited in US11174243B2, “Succinate forms and compositions of Bruton's tyrosine kinase inhibitors” (Sunesis Pharmaceuticals, Inc., priority 2016, dated 2021).

The structures appear in SMILES notation. Like-named read-outs stand apart in the source and are kept apart here.

The conditions of this data set: mean, cited from earlier work.

One may read the Cmax as the highest concentration seen after dosing. For `CC#CC(=O)N1CCC[C@H]1c1nc(-c2ccc(C(=O)Nc3ccccn3)cc2)c2c(N)nccn12` [Acalabrutinib], under “100 mg BID (steady state)”, the AUC0-24 is 1850 ng·h/mL and the Cmax is on record as 827 ng/mL. Take `C=CC(=O)N1CCC[C@@H](n2nc(-c3ccc(Oc4ccccc4)cc3)c3c(N)ncnc32)C1` [Ibrutinib]: the Cmax (560 mg (single dose)) was 141 ng/mL.
